Experimental data: PMC9797307, “Measurement of Pharmacokinetics and Tissue Distribution of Four Compounds from Nauclea officinalis in Rat Plasma and Tissues through HPLC-MS/MS” (Journal of Analytical Methods in Chemistry, 2022)

Assay: Stability of QC samples in rat plasma and tissue homogenates under different storage conditions
Format: in vitro ADME
Details: in % (unit assumed)

## O=C(/C=C/c1ccc(O)c(O)c1)O[C@@H]1C[C@](O)(C(=O)O)C[C@@H](O)[C@H]1O [Chlorogenic acid]
Brain, 2 ng/mL
  Accuracy, Ambient temperature for 4 h: 110.33 ± 7.55
  Accuracy, Three freeze-thraw cycles: 105.65 ± 10.92
  Accuracy, −80°C for 30 days: 90.73 ± 10.25
Brain, 4 ng/mL
  Accuracy, Ambient temperature for 4 h: 89.12 ± 9.00
  Accuracy, Three freeze-thraw cycles: 90.68 ± 10.51
  Accuracy, −80°C for 30 days: 105.32 ± 9.72
Brain, 100 ng/mL
  Accuracy, Ambient temperature for 4 h: 91.93 ± 9.93
  Accuracy, Three freeze-thraw cycles: 108.13 ± 9.91
  Accuracy, −80°C for 30 days: 105.48 ± 6.92
Brain, 2400 ng/mL
  Accuracy, Ambient temperature for 4 h: 102.93 ± 5.79
  Accuracy, Three freeze-thraw cycles: 96.57 ± 10.12
  Accuracy, −80°C for 30 days: 97.98 ± 9.56
Heart, 2 ng/mL
  Accuracy, Ambient temperature for 4 h: 102.73 ± 12.98
  Accuracy, Three freeze-thraw cycles: 91.72 ± 6.33
  Accuracy, −80°C for 30 days: 88.98 ± 5.73
Heart, 4 ng/mL
  Accuracy, Ambient temperature for 4 h: 96.88 ± 11.06
  Accuracy, Three freeze-thraw cycles: 99.03 ± 10.17
  Accuracy, −80°C for 30 days: 102.27 ± 10.30
Heart, 100 ng/mL
  Accuracy, Ambient temperature for 4 h: 112.83 ± 9.11
  Accuracy, Three freeze-thraw cycles: 111.00 ± 7.72
  Accuracy, −80°C for 30 days: 112.62 ± 8.15
Heart, 2400 ng/mL
  Accuracy, Ambient temperature for 4 h: 108.60 ± 8.41
  Accuracy, Three freeze-thraw cycles: 110.55 ± 8.11
  Accuracy, −80°C for 30 days: 104.85 ± 10.69
Kidney, 2 ng/mL
  Accuracy, Ambient temperature for 4 h: 110.07 ± 7.34
  Accuracy, Three freeze-thraw cycles: 97.22 ± 7.67
  Accuracy, −80°C for 30 days: 89.87 ± 9.23
Kidney, 4 ng/mL
  Accuracy, Ambient temperature for 4 h: 87.63 ± 7.76
  Accuracy, Three freeze-thraw cycles: 87.60 ± 9.26
  Accuracy, −80°C for 30 days: 89.60 ± 9.05
Kidney, 100 ng/mL
  Accuracy, Ambient temperature for 4 h: 112.00 ± 7.01
  Accuracy, Three freeze-thraw cycles: 111.17 ± 7.44
  Accuracy, −80°C for 30 days: 103.22 ± 11.32
Kidney, 2400 ng/mL
  Accuracy, Ambient temperature for 4 h: 100.55 ± 5.11
  Accuracy, Three freeze-thraw cycles: 100.45 ± 3.96
  Accuracy, −80°C for 30 days: 101.23 ± 4.69
Liver, 2 ng/mL
  Accuracy, Ambient temperature for 4 h: 88.47 ± 6.93
  Accuracy, Three freeze-thraw cycles: 88.47 ± 7.22
  Accuracy, −80°C for 30 days: 87.43 ± 7.74
Liver, 4 ng/mL
  Accuracy, Ambient temperature for 4 h: 86.27 ± 7.32
  Accuracy, Three freeze-thraw cycles: 86.00 ± 6.23
  Accuracy, −80°C for 30 days: 87.30 ± 4.35
Liver, 100 ng/mL
  Accuracy, Ambient temperature for 4 h: 99.82 ± 2.89
  Accuracy, Three freeze-thraw cycles: 102.27 ± 4.97
  Accuracy, −80°C for 30 days: 87.13 ± 5.77
Liver, 2400 ng/mL
  Accuracy, Ambient temperature for 4 h: 104.17 ± 2.14
  Accuracy, Three freeze-thraw cycles: 99.98 ± 1.86
  Accuracy, −80°C for 30 days: 87.02 ± 5.24
Lung, 2 ng/mL
  Accuracy, Ambient temperature for 4 h: 103.27 ± 8.01
  Accuracy, Three freeze-thraw cycles: 112.93 ± 9.57
  Accuracy, −80°C for 30 days: 113.77 ± 9.20
Lung, 4 ng/mL
  Accuracy, Ambient temperature for 4 h: 101.83 ± 6.41
  Accuracy, Three freeze-thraw cycles: 100.07 ± 10.39
  Accuracy, −80°C for 30 days: 98.77 ± 6.15
Lung, 100 ng/mL
  Accuracy, Ambient temperature for 4 h: 111.50 ± 5.47
  Accuracy, Three freeze-thraw cycles: 110.17 ± 7.14
  Accuracy, −80°C for 30 days: 110.03 ± 9.33
Lung, 2400 ng/mL
  Accuracy, Ambient temperature for 4 h: 100.67 ± 10.17
  Accuracy, Three freeze-thraw cycles: 104.88 ± 8.23
  Accuracy, −80°C for 30 days: 110.17 ± 4.54
Plasma, 2 ng/mL
  Accuracy, Ambient temperature for 4 h: 101.68 ± 8.39
  Accuracy, Three freeze-thraw cycles: 101.23 ± 12.44
  Accuracy, −80°C for 30 days: 93.35 ± 10.78
Plasma, 4 ng/mL
  Accuracy, Ambient temperature for 4 h: 86.78 ± 6.16
  Accuracy, Three freeze-thraw cycles: 95.02 ± 5.39
  Accuracy, −80°C for 30 days: 98.92 ± 12.32
Plasma, 100 ng/mL
  Accuracy, Ambient temperature for 4 h: 112.33 ± 3.72
  Accuracy, Three freeze-thraw cycles: 100.68 ± 6.22
  Accuracy, −80°C for 30 days: 113.17 ± 4.96
Plasma, 2400 ng/mL
  Accuracy, Ambient temperature for 4 h: 98.40 ± 5.56
  Accuracy, Three freeze-thraw cycles: 91.98 ± 4.75
  Accuracy, −80°C for 30 days: 112.67 ± 7.58
Small intestine, 2 ng/mL
  Accuracy, Ambient temperature for 4 h: 105.00 ± 8.20
  Accuracy, Three freeze-thraw cycles: 103.90 ± 4.49
  Accuracy, −80°C for 30 days: 101.42 ± 7.82
Small intestine, 4 ng/mL
  Accuracy, Ambient temperature for 4 h: 91.73 ± 4.49
  Accuracy, Three freeze-thraw cycles: 99.78 ± 7.70
  Accuracy, −80°C for 30 days: 106.70 ± 5.43
Small intestine, 100 ng/mL
  Accuracy, Ambient temperature for 4 h: 95.90 ± 12.31
  Accuracy, Three freeze-thraw cycles: 100.93 ± 12.33
  Accuracy, −80°C for 30 days: 99.07 ± 12.41
Small intestine, 2400 ng/mL
  Accuracy, Ambient temperature for 4 h: 112.00 ± 5.37
  Accuracy, Three freeze-thraw cycles: 111.67 ± 6.12
  Accuracy, −80°C for 30 days: 110.83 ± 6.68
Spleen, 2 ng/mL
  Accuracy, Ambient temperature for 4 h: 97.62 ± 8.11
  Accuracy, Three freeze-thraw cycles: 105.55 ± 7.56
  Accuracy, −80°C for 30 days: 109.70 ± 13.05
Spleen, 4 ng/mL
  Accuracy, Ambient temperature for 4 h: 105.82 ± 9.91
  Accuracy, Three freeze-thraw cycles: 103.68 ± 9.71
  Accuracy, −80°C for 30 days: 98.88 ± 4.16
Spleen, 100 ng/mL
  Accuracy, Ambient temperature for 4 h: 112.00 ± 7.82
  Accuracy, Three freeze-thraw cycles: 106.82 ± 6.88
  Accuracy, −80°C for 30 days: 111.17 ± 7.17
Spleen, 2400 ng/mL
  Accuracy, Ambient temperature for 4 h: 101.52 ± 7.73
  Accuracy, Three freeze-thraw cycles: 106.67 ± 5.43
  Accuracy, −80°C for 30 days: 104.73 ± 7.04
Stomach, 2 ng/mL
  Accuracy, Ambient temperature for 4 h: 113.08 ± 11.06
  Accuracy, Three freeze-thraw cycles: 113.58 ± 8.22
  Accuracy, −80°C for 30 days: 109.08 ± 9.97
Stomach, 4 ng/mL
  Accuracy, Ambient temperature for 4 h: 102.70 ± 10.17
  Accuracy, Three freeze-thraw cycles: 98.87 ± 9.82
  Accuracy, −80°C for 30 days: 89.87 ± 7.04
Stomach, 100 ng/mL
  Accuracy, Ambient temperature for 4 h: 93.75 ± 8.65
  Accuracy, Three freeze-thraw cycles: 93.47 ± 6.76
  Accuracy, −80°C for 30 days: 107.33 ± 5.89
Stomach, 2400 ng/mL
  Accuracy, Ambient temperature for 4 h: 107.17 ± 8.68
  Accuracy, Three freeze-thraw cycles: 100.23 ± 4.63
  Accuracy, −80°C for 30 days: 99.73 ± 10.09
